From BindingDB's records for doi:10.1021/jm060314i (Cnrs, 2006)
Counter-ions that a name gives are not always drawn.

What follows are molecules tested against 5L hepatoma cell line (Rattus norvegicus) (assay: Survival of rat 5L hepatoma cells after 48 hrs by MTS reduction assay).

`CN(C)CCO/N=C1/C(c2c(O)[nH]c3c(Br)cccc23)=Nc2ccccc21` [(2'Z,3'E)-7-bromoindirubin-3'-[O-(2-dimethylaminoethyl)oxime] hydrochloride] and `Oc1[nH]c2c(Br)cccc2c1C1=Nc2ccccc2/C1=N\OCCN1CCCC1` [(2'Z,3'E)-7-bromoindirubin-3'-[O-(2-pyrrolidin-1-ylethyl)oxime] hydrochloride] cannot be ordered by IC50: greater than 30 µM for the first, greater than 30 µM for the second.

For `CN(C)CCO/N=C1/C(c2c(O)[nH]c3c(Br)cccc23)=Nc2ccccc21` [(2'Z,3'E)-7-bromoindirubin-3'-[O-(2-dimethylaminoethyl)oxime]], the IC50 was 25 µM.
